What all share (format): in vivo
Assay [1] concerns Diamond back moth (Plutella xylostella). Put plainly: B.1 Diamond back moth, cabbage leaf dip. Particulars: foliar, read-out: mortality in comparison with untreated controls. The method, boiled down:
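Cabbage leaves were dipped in compound in 1:1 water:acetone with 0.01% surfactant, air-dried and infested with ten 3rd-instar larvae. Mortality and feeding damage (0–100% scale) were scored 72 h after treatment.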

The test system of assay [2] is Orchid Thrips (Dichromothrips Corbetti). In words: B.7 Orchid thrips, floral immersion. Particulars: read-out: mortality in comparison with untreated controls. The method, boiled down:
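Orchid flower petals dipped in compound diluted in 1:1 acetone:water plus 0.01% v/v Kinetic HV, dried, then enclosed with about 20 adult lab-colony thrips. Held under continuous light at about 28 °C; percent mortality recorded 72 hours after treatment.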

Assay [3] deals with Brown Marmorated Stink Bug (Halyomorpha halys). In words: B.13 Brown marmorated stink bug, spray. The conditions noted are these: 120 h, read-out: mortality in comparison with untreated controls. Here is the method: B.13 Brown Marmorated Stink Bug (Halyomorpha halys)
The active compound was dissolved at the desired concentration in a mixture of 1:1 (vol:vol) distilled water:acetone. Surfactant (Kinetic HV) was added at a rate of 0.01% (vol/vol). The test solution was prepared at the day of use.
Row peanuts and soybean seeds were placed into microwavable plastic cups and inoculated with five adult stage H. halys. Using a hand atomizer, approximately 1 ml solution is sprayed into each cup, insects and food present. A water source was provided (cotton wick with water) Each treatment is replicated 4-fold. Assay arenas are kept at about 25° C. Percent mortality was recorded after 5 days.

Assay [4] relates to Silverleaf Whitefly (Bemisia argentifolii). Put plainly: CE.4 Silverleaf whitefly, comparative test. Particulars: 72 h, read-out: % mortality in comparison to untreated controls. On the procedure: (§1) The tables show % mortality in comparison to untreated controls.
CE.4 Silverleaf Whitefly (Bemisia argentifolii)
The active compounds were formulated in 50:50 acetone:water (vol:vol) and 100 ppm Kinetica™ surfactant.
Selected cotton plants were grown to the cotyledon state (one plant per pot). The cotyledons were dipped into the test solution to provide complete coverage of the foliage and placed in a well-vented area to dry. Each pot with treated seedling was placed in a plastic cup and 10 to 12 whitefly adults (approximately 3-5 day old) were introduced. The insects were collected using an aspirator and a Tygon® tubing connected to a barrier pipette tip. The tip, containing the collected insects, was then gently inserted into the soil containing the treated plant, allowing insects to crawl out of the tip to reach the foliage for feeding. The cups were covered with a reusable screened lid. Test plants were maintained in the holding room at about 25° C. and about 20-40% relative humidity for 3 days avoiding direct exposure to the fluorescent light (24 hour photoperiod) to prevent trapping of heat inside the cup. Mortality was assessed 3 days after treatment of the plants.

In assay [5] the test system is Southern Armyworm (Spodoptera eridania), 2nd Instar Larvae. Put plainly: CE.7 Southern armyworm, 2nd instar larvae, comparative test. Particulars: foliar, 96 h, leaf dip, at 4 days, read-out: % mortality in comparison to untreated controls. Here is the method: as §1
CE.7 Southern Armyworm (Spodoptera eridania), 2nd Instar Larvae
The active compounds were formulated in 50:50 acetone:water (vol) and 100 ppm Kinetica™ surfactant.
A pair of first true leaves of Sieva lima bean was dipped into the test solution and allowed to dry. The leaves were then placed in a plastic perforated zip enclosure bag and ten 2nd instar larvae were added. At 4 days, observations were made of mortality and reduced feeding.

Assay [6] has as its system Neotropical Brown Stink Bug (Euschistus heros). In words: B.12 Neotropical brown stink bug, dipped pole bean. The conditions noted are these: 120 h, read-out: mortality in comparison with untreated controls. On the procedure:
B.12 Neotropical Brown Stink Bug (Euschistus heros)
For evaluating control of Euschistus heros through contact the test unit consisted of 100 ml disposable plastic beakers with transparent lids.
The compounds were formulated using a solution containing 50% water and 50% acetone. 50 ml of different concentrations of formulated compounds or mixtures were prepared in a glass petri dish and used for dipping three 6 cm sections of fresh pole bean. Each treatment was replicated eight times.
After application, the pole bean sections were air-dried and 5 adult E. heros placed in each beaker. The E. heros were then allowed to suck on the treated pole bean sections and incubated at 23±1° C., 50±5% RH for 5 days. E. heros mortality was then visually assessed.

In assay [7] the test system is Cowpea Aphid (Aphis Craccivora). Put plainly: CE.1 Cowpea aphid, comparative test. The conditions noted are these: read-out: % mortality in comparison to untreated controls. Here is the method:
as §1
CE.1 Cowpea Aphid (Aphis Craccivora)
Potted cowpea plants colonized with approximately 100-150 aphids of various stages were sprayed after the pest population has been recorded. Population reduction was assessed after 24, 72, and 120 hours.

Assay [8] relates to Rice Brown Plant Hopper (Nilaparvata lugens). Put plainly: CE.2 Rice brown plant hopper, comparative test. Particulars: 10 ppm, after 72 hours, read-out: % mortality in comparison to untreated controls. Here is the method: as §1
CE.2 Rice Brown Plant Hopper (Nilaparvata lugens)
Rice seedlings were cleaned and washed 24 hours before spraying. The active compounds were formulated in 50:50 acetone:water (vol:vol) and 0.1% vol/vol surfactant (EL 620) was added. Potted rice seedlings were sprayed with 5 ml test solution, air dried, placed in cages and inoculated with 10 adults. Treated rice plants were kept at about 28-29° C. and relative humidity of about 50-60%. Percent mortality was recorded after 72 hours.

Assay [9] relates to Orchid Thrips (Dichromothrips Corbetti). In words: CE.3 Orchid thrips, comparative test. Particulars: 96 h, 10 ppm, after 4 days, read-out: % mortality in comparison to untreated controls. On the procedure: as §1
CE.3 Orchid Thrips (Dichromothrips Corbetti)
Dichromothrips corbetti adults used for bioassay were obtained from a colony maintained continuously under laboratory conditions. For testing purposes, the test compound was diluted to a concentration of 300 ppm (wt compound: vol diluent) in a 1:1 mixture of acetone:water (vol:vol), plus 0.01% vol/vol Kinetic® surfactant.
Thrips potency of each compound was evaluated by using a floral-immersion technique. Plastic petri dishes were used as test arenas. All petals of individual, intact orchid flowers were dipped into treatment solution and allowed to dry. Treated flowers were placed into individual petri dishes along with 10-15 adult thrips. The petri dishes were then covered with lids. All test arenas were held under continuous light and a temperature of about 280C for duration of the assay. After 4 days, the numbers of live thrips were counted on each flower, and along inner walls of each petri dish. The level of thrips mortality was extrapolated from pre-treatment thrips numbers.

The text below walks through data of patent publication US20200190073A1, “SUBSTITUTED SUCCINIMIDE DERIVATIVES AS PESTICIDES” (BASF SE, priority 2017, published 2020).

SMILES strings stand for the structures. Like-named read-outs stand apart in the source and are kept apart here.

The mortality is the percentage killed.

`CCN1C(=O)CC(NC(=O)c2ccc(C3=NOC(c4cc(Cl)c(F)c(Cl)c4)(C(F)(F)F)C3)cc2Cl)C1=O` (stereo not shown) [Compound I-1-3]: the mortality at 300 ppm in assay [1] (72 h) was above 75%; in [2] (Thrips, 72 h) it was above 75%. Also, the mortality at 100 ppm in assay [3] is above 75%. Moreover, in [4], the mortality at 10 ppm is 75%. Besides, the mortality at 3 ppm in [5] turned out to be 100%.
Turning to `CN1C(=O)CC(NC(=O)c2ccc(C3=NOC(c4cc(Cl)c(F)c(Cl)c4)(C(F)(F)F)C3)c3c2CCC3)C1=O` (stereo not shown) [Compound I-1-10], the mortality at 300 ppm in assay [1] (72 h) was above 75%; in assay [2] (Thrips, 72 h), above 75%. For the same compound, the mortality at 500 ppm in assay [6] was above 75%. For the same compound, the mortality at 3 ppm in assay [5] was determined as 100%.
Regarding `CCN1C(=O)C[C@@H](NC(=O)c2ccc(C3=NOC(c4ccc(F)c(Cl)c4)(C(F)(F)F)C3)cc2Cl)C1=O` (stereo partly shown) [Compound I-1-53], the mortality at 300 ppm was above 75% in assay [1] (300 ppm, cabbage leaf dip, 3rd instar larvae, 72 hours after treatment) and above 75% in [2] (300 ppm, adult thrips, 72 hours after treatment). Moreover, the mortality at 10 ppm is 100% in assay [7] (10 ppm, sprayed cowpea plants); 75% in [8]; 100% in assay [9].
On to `CN1C(=O)CC(NC(=O)c2ccc(C3=NOC(c4cc(Cl)c(F)c(Cl)c4)(C(F)(F)F)C3)cc2Cl)C1=O` (stereo not shown) [Compound I-1-2, 2-Chloro-4-[5-(3,5-dichloro-4-fluoro-phenyl)-5-(trifluoromethyl)-4H-isoxazol-3-yl]-N-(1-methyl-2,5-dioxo-pyrrolidin-3-yl)benzamide], for which the mortality at 300 ppm is above 75% in assay [1] (72 h) and above 75% in assay [2] (Thrips, 72 h). Moreover, the mortality at 500 ppm in assay [6] is above 75%. In [3], the mortality at 100 ppm was above 75%. The mortality at 10 ppm in [4] turned out to be 88%. For the same compound, the mortality at 3 ppm in assay [5] was determined as 100%.
Take `CN1C(=O)C[C@@H](NC(=O)c2ccc(C3=NOC(c4cc(Cl)c(F)c(Cl)c4)(C(F)(F)F)C3)cc2Cl)C1=O` (stereo partly shown) [Compound I-1-13]: the mortality at 300 ppm in [1] (72 h) was above 75%; in assay [2] (Thrips, 72 h), above 75%. In [6], the mortality at 500 ppm is above 75%. Besides, the mortality at 100 ppm in [3] was above 75%. Also, the mortality at 10 ppm in assay [7] was 90%.
